According to the RepoRT retention time repository (doi:10.1016/j.chroma.2022.462867):

Experiments:
Conditions in all cases: stereoisomer not certain
[1] = HILIC, Phenomenex Kinetex HILIC, 150 × 3 mm, 2.6 µm, 40 °C, 0.35 mL/min, estimated dead time 1.9 min; A: water + 0.1% formic acid, pH 3; B: methanol; gradient (min/%B) 0/95 20/0 25/0 30/95
[2] = RP, Phenomenex Kinetex EVO C18, 150 × 3 mm, 2.6 µm, 40 °C, 0.35 mL/min, estimated dead time 1.9 min; A: water + 0.1% formic acid, pH 3; B: methanol; gradient (min/%B) 0/5 20/100 25/100 30/5
[3] = RP, Phenomenex Kinetex PS C18, 150 × 3 mm, 2.6 µm, 40 °C, 0.35 mL/min, estimated dead time 1.9 min; A: water + 5 mM ammonium acetate, pH 5; B: methanol; gradient (min/%B) 0/5 20/100 25/100 30/5
[4] = RP, Phenomenex Kinetex EVO C18, 150 × 3 mm, 2.6 µm, 40 °C, 0.35 mL/min, estimated dead time 1.9 min; A: water + 5 mM ammonium formate, pH 5; B: acetonitrile; gradient (min/%B) 0/5 20/100 25/100 30/5

With CC(=O)N1CCN(c2ccc(OCC3COC(Cn4ccnc4)(c4ccc(Cl)cc4Cl)O3)cc2)CC1 (centres undefined) [Ketoconazole] as the molecule, how does the LC retention time [1] read?
Its LC retention time is 4.05 min.

What about the LC retention time [2] of the same molecule?
Its LC retention time is 11.2 min.

What about the LC retention time [3] of the same molecule?
The LC retention time was 17.6 min.

What about the LC retention time [4] of the same molecule?
The LC retention time was 12.2 min.

With O=C(NCC1CCCCN1)c1cc(OCC(F)(F)F)ccc1OCC(F)(F)F (centres undefined) [Flecainide] as the molecule, how does the LC retention time [1] read?
Its LC retention time is 3.47 min.

And the LC retention time [2]?
The LC retention time was 9.18 min.

And the LC retention time [3]?
Its LC retention time is 12.8 min.

And the LC retention time [4]?
Its LC retention time is 11.5 min.

Which results are given for CCN=C1NC(NC(C)C)=NC(OC)N1 (centres undefined) [Atraton]?
LC retention time [1]: 2.68 min; LC retention time [2]: 8.8 min; LC retention time [3]: 13.7 min

Which results are given for CN(C)CC(c1ccc(O)cc1)C1(O)CCCCC1 (centres undefined) [O-Desmethylvenlafaxine]?
LC retention time [1]: 4.13 min; LC retention time [2]: 5.49 min; LC retention time [3]: 9.2 min; LC retention time [4]: 6.48 min

With CCN=C1NC(NC(C)C)=NC(SC)N1 (centres undefined) [Ametryn] as the molecule, how does the LC retention time [1] read?
The LC retention time was 2.32 min.

And the LC retention time [3]?
Its LC retention time is 15.1 min.

What about the LC retention time [4] of the same molecule?
Its LC retention time is 11.3 min.

What does the source list for Cc1ccc(S(=O)(=O)N(C)N=O)cc1 [N-Methyl-N-nitrosotoluene-4-sulphonamide]?
LC retention time [1]: 2.38 min; LC retention time [2]: 10.3 min; LC retention time [3]: 13.9 min; LC retention time [4]: 9.88 min

Which LC retention time [1] does the source give for CC(C)(C)C(=O)C(Oc1ccc(Cl)cc1)n1ccnc1 (centres undefined) [Climbazole] here?
Its LC retention time is 2.73 min.

What about the LC retention time [2] of the same molecule?
The LC retention time was 11.5 min.

What about the LC retention time [3] of the same molecule?
The LC retention time was 16.2 min.

For CN1C(=O)CCC1c1cccnc1 (centres undefined) [Cotinine], which LC retention time [1] is on record?
The LC retention time was 3.02 min.

And the LC retention time [3]?
Its LC retention time is 7.52 min.

And the LC retention time [4]?
Its LC retention time is 3.66 min.

For O=C(CCCN1CCC(O)(c2ccc(Cl)cc2)CC1)c1ccc(F)cc1 [Haloperidol], which LC retention time [1] is on record?
Its LC retention time is 3.41 min.

And the LC retention time [2]?
The LC retention time was 9.88 min.

What about the LC retention time [3] of the same molecule?
Its LC retention time is 13.7 min.

What about the LC retention time [4] of the same molecule?
Its LC retention time is 12.3 min.

Which results are given for NCC1(CC(=O)O)CCCCC1 [Gabapentin]?
LC retention time [1]: 3.33 min; LC retention time [2]: 4.04 min; LC retention time [3]: 5.49 min; LC retention time [4]: 2.95 min

What does the source list for COC(=O)C1C2CC3c4[nH]c5cc(OC)ccc5c4CCN3CC2CC(OC(=O)c2cc(OC)c(OC)c(OC)c2)C1OC (centres undefined) [Reserpine]?
LC retention time [1]: 3.31 min; LC retention time [2]: 11.5 min; LC retention time [3]: 17.1 min; LC retention time [4]: 13.3 min

With C=CCOC(Cn1ccnc1)c1ccc(Cl)cc1Cl (centres undefined) [Imazalil] as the molecule, how does the LC retention time [1] read?
The LC retention time was 3.65 min.

And the LC retention time [2]?
Its LC retention time is 10.4 min.

What about the LC retention time [3] of the same molecule?
Its LC retention time is 17.1 min.

What about the LC retention time [4] of the same molecule?
Its LC retention time is 12.9 min.
